# From US8324232B2, “4-pyrimidinesulfamide derivative” (Actelion Pharmaceuticals Ltd., priority 2007, dated 2012)
# Columns and labels:
# [1] = biological target: T1, human recombinant ETA receptors (Homo sapiens, UniProt P25101); assay: Inhibition of endothelin binding to membranes from CHO cells carrying human ETA receptors
# T1 construct: expressed in transfected cells; host or cells: CHO cells (microsomal membranes)
# T1 sequence (P25101 21-427): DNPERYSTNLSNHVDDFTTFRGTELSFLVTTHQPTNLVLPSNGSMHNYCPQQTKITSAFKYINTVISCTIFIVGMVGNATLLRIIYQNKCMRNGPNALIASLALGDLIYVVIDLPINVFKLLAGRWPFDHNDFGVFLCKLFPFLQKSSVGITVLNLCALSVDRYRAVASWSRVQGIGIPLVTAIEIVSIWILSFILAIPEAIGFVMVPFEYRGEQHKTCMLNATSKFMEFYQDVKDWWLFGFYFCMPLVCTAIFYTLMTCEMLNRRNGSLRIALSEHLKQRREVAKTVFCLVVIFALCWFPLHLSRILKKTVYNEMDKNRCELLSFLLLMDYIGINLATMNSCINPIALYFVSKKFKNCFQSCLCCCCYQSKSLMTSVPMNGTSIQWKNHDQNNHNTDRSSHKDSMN
# Procedure: 1) Inhibition of Endothelin Binding to Membranes from CHO Cells Carrying Human ET Receptors
# For competition binding studies, membranes of CHO cells expressing human recombinant ETA or ETB receptors were used.
# All the test compounds were dissolved, diluted and added in DMSO.
# ETA receptors = biological target: T2, ETA receptors (Rattus norvegicus, UniProt P26684); assay: Inhibition of endothelin-1-induced contraction on isolated rat aortic rings
# T2 construct: The thoracic aorta or trachea were excised, dissected and cut in 3-5 mm rings; from tissue; host or cells: thoracic aorta rings of adult Wistar rats, endothelium removed
# T2 sequence (P26684 21-426): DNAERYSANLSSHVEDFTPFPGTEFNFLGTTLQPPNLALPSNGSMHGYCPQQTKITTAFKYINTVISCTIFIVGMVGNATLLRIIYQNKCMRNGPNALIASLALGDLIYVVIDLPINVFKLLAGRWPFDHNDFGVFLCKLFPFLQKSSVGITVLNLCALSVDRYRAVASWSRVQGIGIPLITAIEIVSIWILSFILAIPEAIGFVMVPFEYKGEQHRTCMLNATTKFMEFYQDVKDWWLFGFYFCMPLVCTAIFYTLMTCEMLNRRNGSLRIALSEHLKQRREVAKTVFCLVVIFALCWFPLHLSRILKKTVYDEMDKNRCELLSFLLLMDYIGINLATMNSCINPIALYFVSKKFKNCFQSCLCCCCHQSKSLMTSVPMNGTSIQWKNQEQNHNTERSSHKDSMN
# Procedure: 2) Inhibition of Endothelin-Induced Contractions on Isolated Rat Aortic Rings (ETA Receptors) and Rat Tracheal Rings (ETB Receptors)
# The functional inhibitory potency of the endothelin antagonists was assessed by their inhibition of the contraction induced by endothelin-1 on rat aortic rings (ETA receptors) and of the contraction induced by sarafotoxin S6c on rat tracheal rings (ETB receptors). Adult Wistar rats were anesthetized and exsanguinated. The thoracic aorta or trachea were excised, dissected and cut in 3-5 mm rings. The endothelium/epithelium was removed by gentle rubbing of the intimal surface. Each ring was suspended in a 10 mL isolated organ bath filled with Krebs-Henseleit solution (in mM; NaCl 115, KCl 4.7, MgSO4 1.2, KH2PO4 1.5, NaHCO3 25, CaCl2 2.5, glucose 10) kept at 37° C. and gassed with 95% O2 and 5% CO2. The rings were connected to force transducers and isometric tension was recorded (EMKA Technologies SA, Paris, France). The rings were stretched to a resting tension of 3 g (aorta) or 2 g (trachea). […] The functional inhibitory potency of the test compound was assessed by calculating the concentration ratio, i.e. the shift to the right of the EC50 induced by different concentrations of test compound. […]
# [2] = Pharmacokinetics in the rat after single-dose oral administration; type: in vivo; conditions: male Wistar rats, plasma; for half-life: oral gavage 10 mg/kg; for clearance: oral, 10 mg/kg
# Procedure: Pharmacokinetics in the Rat After Single-Dose Oral Administration
# Male Wistar rats with a body weight of 200-250 g were used for pharmacokinetic experiments after an acclimatization period of at least 7 days. All animals were housed under conditions in accordance with the NIH guidelines. Two days prior to the experiment, rats were anesthetized with a mixture of ketamin (90 mg/kg) and xylazine 2% (10 mg/kg) i.p. A catheter was implanted under aseptic conditions into the jugular vein to allow for multiple blood sampling. After recovery from general anesthesia, animals were housed individually under standard laboratory conditions in Makrolon type-3 cages with wire mesh tops and standardized softwood bedding. Animals had free access to water and food during the recovery period and the entire duration of the experiment.
# Pharmacokinetic experiments were performed in Wistar rats (m=2-3) after jugular vein cannulation to allow for serial blood sampling. Test compounds were administered orally by gavage at doses of 10 mg/kg. Blood was then sampled at pre-defined time points over a period of 24 h and plasma prepared by centrifugation. Drug concentrations in plasma were quantified using liquid chromatography coupled to mass spectrometry (limit of quantification: 4.6 ng/mL). Pharmacokinetic evaluation was performed using non-compartmental analysis.
SMILES,IC50 [1] [µM],Kb (ETA receptors) [µM],half-life [2] [h],clearance [2] [mL/min/kg]
"NS(=O)(=O)Nc1ncnc(OCCOc2ncc(Br)cn2)c1-c1ccc(Br)cc1 [Compound of formula I, {5-(4-bromo-phenyl)-6-[2-(5-bromo-pyrimidin-2-yloxy)-ethoxy]-pyrimidin-4-yl}-sulfamide]",0.0037,0.2,8.7,1.3
"CCCNS(=O)(=O)Nc1ncnc(OCCOc2ncc(Br)cn2)c1-c1ccc(Br)cc1 [Reference Compound, Propylsulfamic acid [5(4 bromo-phenyl)-6-[2-(5-bromo-pyrimidin-2-yloxy)-ethoxy]-pyrimidin-4-yl]-amide, reference compound]",,,2.8 to 4.2,5.7 to 10
